Experimental findings from US20230167142A1, “METHODS FOR THE MONO-AMIDATION OF PHOSPHATES AND PHOSPHONATES” (Board of Regents, The University of Texas System, priority 2020, published 2023) are described below.

Common to all, as to format: cell-based
Assay [1] deals with ENO1-rescued (D423 ENO1) glioma cells. The experiment in a line: cells. The following applies: for activity in cell proliferation assay (FIG. 1): 5 days. As for the experimental part: (§1) FIGS. 1A, 1B, 1C, and 1D show cell proliferation assays for enolase inhibitors HEX (1A), FLM37 (1B), CDP18 (1C), and VCY32 (1D) against (i) ENO1-deleted (D423), (ii) ENO1-rescued (D423 ENO1), and (iii) ENO1-wildtype (LN319) glioma cells. Cells were incubated with pro-drug inhibitor for 5 days. Then, cells were fixed and stained with crystal violet and quantified spectroscopically. Numerical labels indicate concentration of enolase inhibitor in nM.
(§2) FIGS. 2A, 2B, and 2C show plots of relative cell density (vertical axis) against concentration (horizontal axis, nM) of enolase inhibitors FLM37 (2A), CDP18 (2B), and VCY32 (2C) for (i) ENO1-deleted (D423), (ii) ENO1-rescued (D423 ENO1), and (iii) ENO1-wildtype (LN319) glioma cells.
(§3) See, Leonard et al. (2016) Nat. Chem. Biol. 12:1053-1058 and Satani et al. (2016) PLos One, 11:e0168739, each of which is incorporated by reference for all purposes. Then, cells were fixed and stained with crystal violet and quantified spectroscopically. Cell density as measured by crystal violet were plotted as a function of inhibitor.
(§4) FIGS. 1A, 1B, 1C, and 1D show representative cell proliferation assays for the compounds HEX (1A), FLM37 (1B), CDP18 (1C), and VCY32 (1D). For each compound, assays are run against (i) ENO1-deleted (D423), (ii) ENO1-rescued (D423 ENO1), and (iii) ENO1-wildtype (LN319) glioma cells.

Assay [2] has as its system ENO1-deleted (D423) glioma cells. The experiment in a line: Crystal violet cell proliferation assay, ENO1-deleted D423 cells. The following applies: for IC50: Glioma cell. As for the experimental part:
as §1, §2
(§5) Numerical labels indicate concentration of enolase inhibitor in nM.
as §3, §4

Assay [3] relates to ENO1-wildtype (LN319) glioma cells. The experiment in a line: Crystal violet cell proliferation assay, ENO1-wildtype LN319 cells. The following applies: for activity in cell proliferation assay (FIG. 1): 5 days. As for the experimental part: as §1, §2, §5, §3, §4
Setting [4] is: Glioma cell, table of Formula V compounds, R6 = POM, read-out: IC50, D423 EN01 (ENO1 +/+).
Where [5] appears, read: ENO1-deleted (D423), read-out: IC50,D423 (ENO1−/−).
Setting [6] is: LN-319, ENO1-wildtype (LN319), read-out: IC50, LN319 (ENO1+/+).
The mark [7] stands for this setting: Glioma cell, footnote, experiment with VCY32, read-out: IC50 in reference to respective POMHEX control.
The mark [8] stands for this setting: table of Formula V compounds, R6 = POM, read-out: IC50, D423 EN01 (ENO1 +/+).

Like-named read-outs stand apart in the source and are kept apart here.

As to `CC(C)(C)C(=O)OCOP(=O)(NCc1cccc(F)c1)C1CCCN(O)C1=O` (stereo not drawn) [CDP12, ((((3-fluorobenzyl)amino)(1-hydroxy-2-oxopiperidin-3-yl)phosphoryl)oxy)methyl pivalate], the IC50 in assay [1] (setting [4]) came to 103 nM.
Regarding `CN(C)P(=O)(OCOC(=O)C(C)(C)C)C1CCCN(O)C1=O` (stereo not drawn) [CDP21, (((dimethylamino)(1-hydroxy-2-oxopiperidin-3-yl)phosphoryl)oxy)methyl pivalate], the IC50 in assay [1] (Glioma cell, read-out: IC50, D423 EN01 (ENO1 +/+)) is 115 nM; in assay [1] (Glioma cell, read-out: IC50,D423 ENO1 (ENO1+/+)), 2170 nM; in assay [2] (120 h) it was 108 nM; in assay [2] (read-out: IC50,D423 (ENO1−/−)), 108 nM; in assay [3] (LN-319, read-out: IC50, LN319 (ENO1+/+)), 5060 nM. Moreover, the “selectivity for ENO1-deleted cells” value in assay [2] was “selective for ENO1-deleted cells”.
With `CCCCCCCCCCCCNP(=O)(O)C1CCCN(O)C1=O` (stereo not drawn) [CDP22, N-dodecyl-P-(1-hydroxy-2-oxopiperidin-3-yl)phosphonamidic acid], in assay [2] (ENO1-deleted (D423)), the “level of inhibition of ENO1-deleted (D423) cells (FIG. 3), in words” value was “sub-micromolar levels”. In addition, the IC50 in assay [2] (setting [5]) came to 58 nM; in assay [3] (setting [6]) it was 844 nM; in assay [3] (LN-319, text b400, read-out: IC50 values for ENO1-wildtype (LN319) glioma cells (i) (FIGS. 4A, 4B)), 24 nM. In addition, the “inhibition / activity in ENO1-wildtype (LN319) cells (FIG. 3)” value in assay [3] (ENO1-wildtype (LN319)) is reported as “shows activity”.
With `CNP(=O)(OCOC(=O)C(C)(C)C)C1CCCN(O)C1=O` (stereo not drawn) [CDP23, (((1-hydroxy-2-oxopiperidin-3-yl)(methylamino)phosphoryl)oxy)methyl pivalate], the IC50 came out at 790 nM in assay [1] (Glioma cell, ENO1-rescued (D423 ENO1), read-out: IC50,D423 ENO1 (ENO1+/+)); 62.6 nM in assay [1] (setting [4]); 40 nM in assay [2] (120 h, D423 cells, 5 days incubation, crystal violet, read-out: IC50); 40 nM in assay [2] (setting [5]); 1500 nM in assay [3] (setting [6]). For the same molecule, in assay [2], the “greater potency compared to CDP21” value is on record as “more than 2.5 fold”. Besides, the “selectivity for ENO1-deleted cells” value in assay [2] (crystal violet cell proliferation assay, 5 days) is given as “selective for ENO1-deleted cells”.
For the molecule `CC(C)(C)C(=O)OCOP(=O)(NCc1ccccc1)C1CCCN(O)C1=O` (stereo not drawn) [FLM37, (((benzylamino)(1-hydroxy-2-oxopiperidin-3-yl)phosphoryl)oxy)methyl pivalate], the “activity in cell proliferation assay (FIG. 1)” value (shortened to “activity … (FIG. 1)”) in assay [1] (ENO1-rescued (D423 ENO1)) is on record as “activity at the micromolar range or better”; in assay [2] (ENO1-deleted (D423), 5 days), “activity at the micromolar range or better”; in assay [3] (ENO1-wildtype (LN319)), “activity at the micromolar range or better”. Besides, the IC50 in assay [1] (setting [4]) was found to be 244 nM.
For the molecule `CC(C)(C)C(=O)OCOP(=O)(NCc1ccccn1)C1CCCN(O)C1=O` (stereo not drawn) [KY9, (((1-hydroxy-2-oxopiperidin-3-yl){(pyridin-2-ylmethyl)amino)phosphoryl)oxy)methyl pivalate], in assay [1] (setting [4]), the IC50 was found to be 96.2 nM.
As to `CC(C)(C)C(=O)OCOP(=O)(OCOC(=O)C(C)(C)C)C1CCCN(O)C1=O` (stereo not drawn) [POMHEX, (((1-hydroxy-2-oxopiperidin-3-yl)phosphoryl)bis(oxy))bis(methylene) bis(2,2-dimethylpropanoate), reference compound], the IC50 in assay [1] (setting [7]) was 41.5 nM; in assay [1] (Glioma cell, footnote, experiment with VCY34, read-out: IC50 in reference to respective POMHEX control) it was 217 nM; in assay [1] (setting [4]), 17.3 nM.
Consider `CC(C)(C)C(=O)OCOP(=O)(NCc1ccc(F)cc1)C1CCCN(O)C1=O` (stereo not drawn) [VCY19, ((((4-fluorobenzyl)amino)(1-hydroxy-2-oxopiperidin-3-yl)phosphoryl)oxy)methyl pivalate], for which the IC50 in assay [1] (setting [4]) was found to be 129 nM.
In the case of `CC(C)(C)C(=O)OCOP(=O)(NCC1CC1)C1CCCN(O)C1=O` (stereo not drawn) [VCY32, ((((Cyclopropylmethyl)amino)(1-hydroxy-2-oxopiperidin-3-yl)phosphoryl)oxy)methyl pivalate], the “activity … (FIG. 1)” value in assay [1] (ENO1-rescued (D423 ENO1)) is “activity at the micromolar range or better”; in assay [2] (ENO1-deleted (D423), 5 days), “activity at the micromolar range or better”; in assay [3] (ENO1-wildtype (LN319)), “activity at the micromolar range or better”. Moreover, the IC50 in assay [1] (setting [7]) and in assay [1] (setting [4]) was 22 nM each time.
In the case of “((((2,4-difluorobenzyi)amino)(1-hydrnxy-2-oxopiperidin-3-yl)phosphoryl)oxy)methyl pivalate [CDP14]”, the IC50 in assay [1] (setting [8]) amounted to 80.3 nM.
Regarding “((((3,4-difluornhenzyl)amino)(1-hydro:xy-2-oxopiperidin-3-yl)phosphoryl)oxy)methyl pivalate [CDP13]”, the IC50 in assay [1] (setting [8]) was found to be 84.6 nM.
Turning to “((((Cyclohexylmethyl)amino)(1-hydro:xy-2-oxopiperidin-3-yl)phosphoryl)oxy)methyl pivalate [CDP18]”, the “activity … (FIG. 1)” value in assay [1] (ENO1-rescued (D423 ENO1)) was “activity at the micromolar range or better”; in assay [2] (ENO1-deleted (D423), 5 days), “activity at the micromolar range or better”; in assay [3] (ENO1-wildtype (LN319)), “activity at the micromolar range or better”. For the same molecule, the IC50 in assay [1] (setting [8]) turned out to be 81.1 nM.
